Consider 8 compounds from patent US11591284B2, “Compounds for the treatment of neuromuscular disorders” (NMD Pharma A/S, priority 2017, dated 2023).

SMILES strings stand for the structures. Read-outs that look alike come from different tables or passages of the source.

Series [1] has as its system isolated rat soleus muscles. In words: Recovery of nerve-stimulated force in isolated rat soleus muscles exposed to sub-maximal tubocurarine. The conditions noted are these: for 500 μM % change after addition: 500 μM compound. As for the experimental part:
FIGS. 3A-3B. […] The motor nerve was stimulated every 10 min for 2 s with 30 Hz with field stimulation using short duration pulses. […] Traces are shown before addition tubocurarine, after 40 min with tubocurarine, and after 110 min tubocurarine. […] This recovery of force was used in Table 1.
(§1) In all contraction experiments, isometric force production was determined and force produced during contractions was quantified by measuring the integral of the force response (AUC). Stimulation and force recordings have been described elsewhere. […] In these latter experiments, extracellular recordings of action potentials (M-waves) could be measured without temporal overlap with stimulation artefacts.
(§2) To initially confirm that inhibition of CIC-1 ion channels can be used to recover contractile force in muscle with reduced neuromuscular transmission, isolated nerve-muscle preparations were first exposed to either tubocurarine (FIG. 2A) or elevated Mg^2+ (FIG. 2B) and then a specific CIC-1 inhibitor (9-AC) was added.
To identify CIC-1 inhibitors that could be used for treatment of neuromuscular disorders we repeated the experiment shown in FIG. 2A but instead of adding 9-AC we added the compounds of interest in different concentrations within the range from 10 to 500 μM. […] For comparison with the muscle only exposed to tubocurarine (grey trace), the two traces have been overlaid. […] For comparison, muscles only exposed to tubocurarine have been included. The dotted line indicates the recovery of force with C8 when compared to the force production before its addition. This value was used in Table 1 for evaluation of the efficacy of the different compounds in recovering force.

Series [2] has as its system rats. Briefly: Rotarod running performance in passive myasthenia gravis induced with MAB35 monoclonal antibody. The conditions noted are these: MAB35 model, compared with sham. It counts as in vivo, rat. As for the experimental part:
FIG. 10. […] Prior to I.P. injection of MAB35 the animals had been familiarized to the rotarod over three training sessions distributed over two days. […] After this treatment performance was monitored every second hour. *Indicates significant different as evaluated using student t-test.
(§3) In both series of experiments, running performance was tested on a rotarod using a protocol where the rod was accelerated gradually over a 5 min period, and the running time and covered distance before falling off the rod were measured. […] Experiments with tubocurarine were carried out over two days, and on each day the effect of tubocurarine on running performance was tested. On the first day only tubocurarine was injected. […] On the second day, the animals were first allowed to run on the rotarod, and all animals performed normally. […] The allocation of the animals into the two groups (C8 or sham) was random and unknown to the experimenter (blinded experimental design).
In experiments with MAB35, animals were first familiarized with the rotarod over two consecutive days and then injected I.P. with MAB35. After injection, rotarod performance was then again monitored regularly over the consecutive two days. […] A considerable number of animals, however, became moribund failing to walk and they had altered ventilation (rapid) and pronounced ptosis. These animals were not included in experiments. […]
In general terms: In the rotarod test animals must keep their balance on a rotating rod.

Series [3] deals with isolated rat soleus muscles. In words: Recovery of nerve-stimulated force in isolated rat soleus muscles exposed to 3.5 mM Mg2+. The protocol: as §1
The aim was to find compounds that by inhibition of CIC-1 channels can recover nerve-stimulated force under conditions of fatigue including conditions where fatigue is caused by compromised neuromuscular transmission. Neuromuscular transmission dysfunction can develop because of both pre- and/or post-synaptic complications in connection with a disorder or as part of neuromuscular blockade during/after surgery. In the initial series of drug testing, experiments were performed with isolated muscles in the presence of sub-maximal ACh receptor antagonist tubocurarine. Since the inclusion of tubocurarine caused a partial loss of neuromuscular transmission this experiment mimics the conditions in myasthenia gravis and neuromuscular blockade. To mimic conditions with pre-synaptic complication (Lambert Eaton syndrome, motor neuron disorder, polyneuropathy) the intact nerve-muscle preparations were incubated at elevated extracellular Mg^2+, which is known to suppress release of ACh from nerve terminals of motor neurons.
as §2
The next series of experiments determined whether the compounds that recovered nerve-stimulated force in the presence of tubocurarine could also recover nerve-stimulated force at elevated extracellular Mg^2+.

Series [4] concerns rats. Briefly: Rotarod running performance of rats after I.P. tubocurarine. The series is classed as in vivo, rat. The conditions noted are these: 20 mg/kg I.P., 2 hrs before tubocurarine (0.13 mg/kg I.P.); tested 21 min after tubocurarine; sham around 2%. The protocol:
FIGS. 9A-9B. […] FIG. 9A illustrates the design of the experiments. Prior to Day One the animals had been familiarized to the rotarod in three training sessions distributed over two days.
as §3
In the first series of in vivo experiments, myasthenia gravis was simply mimicked by I.P. injection of tubocurarine (0.13 mg/kg) in animals that had been familiarized to running on the rotarod. On the first of two consecutive days, tubocurarine was injected I.P. and the running performance of the animal was tested 21 minutes after this injection. On the second day of experimentation, the animals first performed a test run to ensure that they were no longer affected by the tubocurarine injected the day before. […]

For the next series, the system named is soleus muscles. In words: Mg2+ concentration required to depress nerve-stimulated force by 50% (Kd,Mg2+) in soleus muscles. Details: species or system rat. The conditions noted are these: combination of C8 and 3,4-diaminopyridine. The protocol:
FIGS. 6A-6E. […] Muscles from 4-week-old rats were stimulated to contract by activating the motor nerve with short duration pulses in field stimulation. Muscles contracted every 10 min for 2 s in response to 30 Hz stimulation. Four different experimental conditions were used. […] C) similar to A) but this muscle had been pre-incubated with 3,4-AP. […] The force integral (AUC) was determined at each extracellular Mg^2+ concentration. AUC was plotted against Mg^2+ concentration and the data was fitted to a sigmoidal function. This provided the extracellular Mg^2+ concentration that was required to reduce the nerve-stimulated force to 50% (Mg50) under the four different conditions (see Table 5).
While the use of tubocurarine mimics conditions with reduced neuromuscular transmission due to post-synaptic dysfunction (myasthenia gravis, neuromuscular blockade), the experiments with elevated extracellular Mg^2+ mimics conditions with pre-synaptic dysfunction akin to a range of neuromuscular disorders including Lambert Eaton syndrome, motor neuron disorders and polyneuropathy. […] Based on this it was determined whether recovery of nerve-stimulated force at elevated extracellular Mg^2+ with CIC-1 inhibiting compounds could be added to force recovery with 3,4-AP. […] To quantify the effect of compounds on Mg^2+ sensitivity the force at the different Mg^2+ concentrations was determined. […]

The next series concerns isolated human muscles. The conditions noted are these: human muscle; 150 μM (FIG. 8A).
In another series the test system is rat soleus muscle. The series is classed as cell-based. The conditions noted are these: 10 and 25 μM; 1 μM μ-conotoxin GiiiB.
Series [5] in a line: Pharmacokinetic analysis of a single I.P. dose in rats. The series is classed as in vivo, Sprague-Dawley rats. The conditions noted are these: rat, single I.P. dose 10 mg/kg, plasma. As for the experimental part: This part of the study was performed by Pipeline Biotech A/S (Spørring, Denmark). […] Plasma concentrations (free and bound) were determined by OnTarget Chemistry (Uppsala, Sweden, Project No.: PB243-001).
Before conducting in vivo experiments with animal models of myasthenia gravis, some pharmacokinetic details were obtained for C8 in response to one-bolus I.P. injection.

The subject of series [6] is isolated rat soleus muscles. Briefly: Recovery of nerve-stimulated force in isolated rat soleus muscles with ACh receptors inhibited by 2 μM rocuronium. The conditions noted are these: 50 μM compound added after 2 μM rocuronium had reduced force to 51±5%; 8 muscles; p<0.01. The protocol:
In a separate series of experiments with 8 isolated rat soleus muscles, ACh receptors were inhibited using 2 μM rocuronium, which is a clinically used neuromuscular blocking agent. Under these conditions the nerve-stimulated force was reduced to 51±5% of force before rocuronium. […] This illustrates the potential of these compounds to be used as reversal agents.

Where [7] appears, read: 150 μM compound, % change in AUC force compared to AUC after 40 min in tubocurarine, before addition.
Where [8] appears, read: % change in AUC force compared to AUC after 40 min in tubocurarine, before addition.

For the compound `Cl.NCC(Oc1ccc(F)cc1)C(=O)O` (stereo not shown) [Compound C9, 3-amino-2-(4-fluorophenoxy)propanoic acid hydrochloride], in series [1] (setting [7]), the “150 μM % change after addition” value is reported as −13%. Also, the “500 μM % change after addition” value in [1] (setting [8]) turned out to be 5%.

As for `C[C@H](Oc1ccc(Br)cc1)C(=O)O` [Compound C8, (2S)-2-(4-bromophenoxy)propanoic acid], the “rotarod running performance after injection” value in the series on rats [2] (20 mg/kg I.P.) is “decline was reduced”. In addition, in the series on rats [2] (30 mg/kg I.P.), the “rotarod running performance after injection” value is listed as “clear recovery of performance”. The “150 μM % change after addition” value in series [1] (setting [7]) is 23%. Besides, the “50 μM % change after addition” value in series [3] (50 μM compound, 3.5 mM Mg2+, % change in AUC force vs column 3 (after 70 min at elevated Mg2+)) is listed as 13 ± 4%. The “100 μM % change after addition” value in series [3] (100 μM compound, 3.5 mM Mg2+, % change in AUC force vs column 3 (after 70 min at elevated Mg2+)) was found to be 26 ± 5%. Moreover, in the series on rats [4], the “increase in running distance on Day Two compared to Day One” value is on record as “around 150%”. The “effect of combination on recovery of neuromuscular transmission” value with soleus muscles was “unexpected synergistic effect”. In the series on isolated human muscles, the “contractile force at elevated K+ and TTX” value is reported as “markedly recovery”. Besides, the “EPP amplitude compared to control conditions” value with rat soleus muscle is recorded as “significantly larger EPPs”. In series [5], the CI_obs was 48.69 mL/h and the VD_obs was determined as 259.62 mL. In addition, the “nerve-stimulated contractile force, % of force before rocuronium” value in [6] came to 81±4%.

As for `O=C(O)c1c2ccccc2cc2ccccc12` [Compound 9-AC, reference compound], the “recovery of force and M-wave signal” value in [1] (9-AC added after tubocurarine (FIG. 2A)) is “marked recovery of both force and M-wave signal”; in series [3] (9-AC added at elevated Mg2+ (FIG. 2B)), “marked recovery of both force and M-wave signal”.

Consider `CCC(Oc1ccc(Cl)cc1)C(=O)O` (stereo not shown) [Compound C7, 2-(4-chlorophenoxy)butanoic acid], for which, in series [1] (setting [7]), the “150 μM % change after addition” value worked out at 0%. For the same compound, in series [1] (setting [8]), the “500 μM % change after addition” value was found to be 40%.

With `C[C@H](OCc1ccccc1)C(=O)O` [Compound C5, (2S)-2-(benzyloxy)propanoic acid], the “150 μM % change after addition” value in [1] (setting [7]) is reported as 1%. The “500 μM % change after addition” value in series [1] (setting [8]) came to 42%.

Take `CC(C(=O)O)S(=O)(=O)c1ccc(F)cc1` (stereo not shown) [Compound C6, 2-(4-fluorobenzenesulfonyl)propanoic acid]: the “150 μM % change after addition” value in series [1] (setting [7]) is −8%. Also, the “500 μM % change after addition” value in series [1] (setting [8]) was 9%.

`COCC(C)C(Oc1ccc(Br)cc1)C(=O)O` (stereo not shown) [Compound C21, 2-(4-bromophenoxy)-4-methoxy-3-methylbutanoic acid]: in [1] (setting [7]), the “150 μM % change after addition” value stood at 7%. The “500 μM % change after addition” value in series [1] (setting [8]) was determined as 36%.

As for `CC(Oc1ccc(Cl)cc1)C(=O)Oc1ccc(Cl)cc1` (stereo not shown) [Compound C11, 4-chlorophenyl 2-(4-chlorophenoxy)propanoate], in [1], the “150 μM % change after addition” value is given as 54%.
